{
  "source": "patent US20230218663A1",
  "about": "“COMPOSITIONS AND METHODS FOR TREATING A SARS-COV-2 INFECTION” (priority 2020, published 2023)",
  "test_system": "SARS-CoV-2",
  "assay": "Viral load reduction assay in VeroE6 cells",
  "assay_type": "cell-based",
  "description": "Viral load reduction assay was performed on VeroE6 and Caco2 cells, as described previously with modifications^41. Supernatant samples from the infected cells (0.1 MOI) were harvested at 48 hours post-infection (hpi) for qRT-PCR analysis of virus replication. Briefly, 100 μL of viral supernatant were lyzed with 400 μL of AVL buffer and then extracted for total RNA with the QIAamp viral RNA mini kit (Qiagen, Hilden, Germany). Real-time one-step qRT-PCR was used for quantitation of SARS-CoV-2 viral load using the QuantiNova Probe RT-PCR kit (Qiagen) with a LightCycler 480 Real-Time PCR System (Roche) as previously described^15. Each […] mixture contained 10 μL of 2×QuantiNova Probe RT-PCR Master Mix, 1.2 μL of RNase-free water, 0.2 μL of QuantiNova Probe RT-Mix, 1.6 μL each of 10 μM forward and reverse primer, 0.4 μL of 10 μM probe, and 5 μL of extracted RNA as the template. Reactions were incubated at 45° C. for 10 min for reverse transcription, 95° C. for 5 min for denaturation, followed by 45 cycles of 95° C. for 5 s and 55° C. for 30 s. Signal detection and measurement were taken in each cycle after the annealing step. The cycling profile ended with a cooling step at 40° C. for 30 s. The primers and probe sequences are against the RNA-dependent RNA polymerase/Helicase (RdRP/Hel) gene region of SARS-Cov-2 previously described^42.\nCell culture supernatants were collected at 48 hour-post-infection (hpi) for viral RNA extraction and quantitative reverse transcription-polymerase chain reaction (qRT-PCR) as previously described with modifications(13, 14). The primers and probe sequences were against the RNA-dependent RNA polymerase/Helicase (RdRP/Hel) gene region of SARS-CoV-2: forward primer: 5′-[…]-3′ (SEQ ID NO:6); reverse primer: 5′-[…]-3′(SEQ ID NO:7); specific probe: 5′-[…]-IABkFQ-3′(SEQ ID NO:8). The viral load reduction assay experiments were performed in triplicate and repeated twice for confirmation.",
  "data": [
    {"substance": "Colloidal Bismuth Subcitrate [De-Nol]", "values": [
      {"measurement": "maximal viral load reduction in VeroE6 cell culture supernatant", "result": "~4", "unit": "logs"},
      {"measurement": "maximal viral load reduction in the VeroE6 cell lysate", "result": "~2", "unit": "logs"}
    ]}
  ]
}
